Four molecules from patent publication US10993957B2 (NuCana plc, priority 2011, dated 2021) can be followed below.

Read-outs that look alike come from different tables or passages of the source.

Data set [1] addresses human UP (Homo sapiens, UniProt Q16831). In words: Phosphorolysis by human UP, HPLC. The note with it: 100 μM compound, room temperature, 0-40 min. The method, then:
Reaction mixtures containing 100 μM test compound and recombinant TP or UP (human TP: 8.6 ng/μL; E. coli TP: 3.0 ng/μL; human UP: 4 ng/mL) in a total volume of 500 μL reaction buffer (10 mM TrisHCl; 300 μM NaCl; 1 mM EDTA; 2 mM KH2PO4/K2HPO4) were incubated at room temperature. At different time points (i.e. 0, 20, 40 min) 100 μL aliquots of the reaction mixtures were withdrawn and heated at 95° C. for 3 min to inactivate the enzyme. […] The separation of Urd from uracil was performed by a linear gradient from 100% separation buffer (see above) to 60% separation buffer+40% acetonitrile (3 min 100% separation buffer; 6 min linear gradient of 100% separation buffer to 60% separation buffer+40% acetonitrile; 6 min 60% separation buffer+40% acetonitrile, followed by equilibration at 100% separation buffer).

Data set [2] concerns L1210/TK^−. In words: Cytostatic assay, thymidine kinase-deficient L1210/TK^− cells. The note with it: for CC50: L1210, Table 1, read-out: CC50 L1210/TK^−; for IC50: Table 6, read-out: IC50 L1210/TK^−. It counts as cell-based, murine.
Data set [3] has as its system HeLa/TK^−. Kind of data set: Cytostatic assay, HeLa/TK^− cells. It counts as cell-based. As to conditions: for CC50: Table 1, read-out: CC50 HeLa/TK^−; for IC50: Table 6, read-out: IC50 HeLa/TK^−. An excerpt:
(§1) The cell lines employed were L1210/0 (a leukemia cell line), FM3A/0 (a breast cancer cell line), Cem/0 (an acute lymphoblastic leukemia cell line) and HeLa (a cervical cell line).

Data set [4] has as its system L1210.Hyor. Kind of data set: Cytostatic assay, Mycoplasma hyorhinis-infected L1210 cells. Summed up: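 Suspension L1210/0 murine leukaemia cells infected with M. hyorhinis, seeded at 60,000 cells/well with test compound in DMEM/10% FBS and grown 48 h at 37 °C, 5% CO2. Cell number counted by Coulter counter; activity also expressed as % retained versus uninfected cells.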

The subject of data set [5] is FM3A/TK^−. In words: Cytostatic assay, FM3A/TK^− cells. As to conditions: Mus musculus, read-out: CC50 FM3A/TK^−. It counts as cell-based.
Data set [6] concerns L1210/0. In words: Cytostatic assay, L1210/0 cells. The note with it: for IC50: read-out: IC50 L1210/0. It is filed as cell-based, murine.
Description: as §1

The subject of data set [7] is FM3A/0. In words: Cytostatic assay, FM3A/0 cells. It counts as cell-based. The note with it: Mus musculus, FM3A/0, read-out: CC50 FM3A/0. How it is done:
The samples were assayed for biological activity versus a range of tumour cell lines with data recorded in Table 1 below. […] The cell lines employed were L1210/0 (a leukemia cell line), FM3A/0 (a breast cancer cell line), Cem/0 (an acute lymphoblastic leukemia cell line) and HeLa (a cervical cell line).

Data set [8] relates to Cem/0. Kind of data set: Cytostatic assay, CEM/0 cells. It is filed as cell-based, human. As to conditions: for CC50: Table 1, read-out: CC50 Cem/0; for IC50: Table 6, read-out: IC50 Cem/0.
Description: as §1

For data set [9], the system named is HeLa. Kind of data set: Cytostatic assay, HeLa cells. As to conditions: for CC50: Table 1, read-out: CC50 HeLa; for IC50: Table 6, read-out: IC50 HeLa. It is filed as cell-based.
Description: as §1

The subject of data set [10] is Cem/TK^−. Kind of data set: Cytostatic assay, thymidine kinase-deficient CEM/TK^− cells. It counts as cell-based, human. As to conditions: for CC50: Table 1, read-out: CC50 Cem/TK^−; for IC50: Table 6, read-out: IC50 Cem/TK^−.
Data set [11] can be described thus: Stability in human serum by in situ 31P NMR. As to conditions: 37° C., after 13 h and 30 min. It counts as in vitro ADME. The method, then:
The stability of the prodrug CPF-373 in the presence of human serum was studied using in situ ^31P NMR (202 MHz). The ProTide CPF-373 (1) (5.0 mg) was dissolved in DMSO (0.05 mL) and D2O (0.15 mL). Then the sample was transferred into an NMR tube, which was inserted in the NMR chamber at 37° C. (with enough solvent to obtain a control NMR reading of the blank). Then 0.3 ml human serum was quickly added to the sample in the NMR tube. NMR experiments were programmed to record data every 15 minutes for 12 hours and 30 minutes. Because of excess noise and poor shimming profiles (most likely due to the biological media and concentration), individual spectra were further processed. After normal Fourier transform processing, each spectrum was deconvoluted (Lorentz-Gauss deconvolution) to reveal solely the frequency and area of spectral peaks without the baseline. Data recorded were processed and analysed with the Bruker Topspin 2.1 program.
Chemical stability studies on the prodrug CPF-373 (1) have been performed by exposing the compound to human serum and to aqueous buffers (pH 1.0 and 8.0) using in situ ^31P NMR. […]
The stability of compound CPF 386 in the presence of human serum was investigated using in situ ^31P NMR. A control ^31P NMR data of compound CPF 386 in DMSO and D2O were recorded. […] The ^31P NMR data were recorded every 15 minutes over 14 h. […]

In data set [12] the target is Thymidine Phosphorylase purified from Escherichia coli (Escherichia coli, UniProt P07650). Kind of data set: Phosphorylase assay by in situ 19F NMR. The note with it: potassium phosphate buffer 300 nM, pH 7.4; after 5 min, 14 h and 72 h.
Sequence of Thymidine Phosphorylase purified from Escherichia coli (P07650 whole entry): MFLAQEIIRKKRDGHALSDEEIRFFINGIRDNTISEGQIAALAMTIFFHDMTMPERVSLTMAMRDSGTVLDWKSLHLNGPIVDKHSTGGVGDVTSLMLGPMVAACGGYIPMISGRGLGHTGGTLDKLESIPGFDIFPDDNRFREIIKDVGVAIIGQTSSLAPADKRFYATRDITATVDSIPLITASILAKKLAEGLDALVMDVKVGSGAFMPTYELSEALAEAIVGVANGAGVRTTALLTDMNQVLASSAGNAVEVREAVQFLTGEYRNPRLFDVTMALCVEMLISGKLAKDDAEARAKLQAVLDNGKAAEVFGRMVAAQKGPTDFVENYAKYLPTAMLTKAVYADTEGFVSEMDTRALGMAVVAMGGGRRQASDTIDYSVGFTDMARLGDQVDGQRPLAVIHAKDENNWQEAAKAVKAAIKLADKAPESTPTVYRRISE
Description: Two potassium phosphate buffers at pH=7.4, 200 nM solution and 300 nM solution respectively, were used as phosphate donor. Units of enzyme were defined as the amount of enzyme required to hydrolyse about 0.25 mg of inosine per min used as standard. Assays were conducted for 30 minutes.
The test system of data set [13] is Cem/hEnt-0. In words: Cytostatic assay, CEM cells lacking the hEnt1 transporter. It is filed as cell-based. As to conditions: Table 8; read-out: IC50 Cem/hEnt-0. An excerpt:
(§2) Data are mean (±SD) of at least two to four independent experiments. Table 8 identifies the phosphoramidate motif of compounds embodying the present invention, as discussed above with respect to Table 6, but with “Naph” standing for 1-naphthyl.

Data set [14] has as its system Cem/hEnt-1. Kind of data set: Cytostatic assay, CEM cells containing the hEnt1 transporter. It is filed as cell-based.
Description: as §2

A short description of data set [15]: Stability in buffer at pH 1 by 31P NMR. It is filed as physicochemical. As to conditions: 14 hours. How it is done: The stability of the prodrug CPF-373 towards hydrolysis at pH=1 was studied using in situ ^31P NMR (202 MHz). The ProTide CPF-373 (1) (2.6 mg) was dissolved in MeOD (0.1 mL) after which 0.5 mL buffer (pH=1) (prepared from equal parts of 0.2 M HCl and 0.2 M KCl) was added. Then the sample was transferred into an NMR tube, and a ^31P NMR experiment was performed at 37° C. recording the data every 12 minutes for 14 hours. Data were processed and analysed with the Bruker Topspin 2.1 program.
A chemical hydrolysis was evaluated under experimental conditions at pH 1 and pH 8 and monitored by ^31P NMR. During the assay (14 h) under acidic conditions (pH 1) only two peaks representing the two diastereoisomers were recorded.

The mark [16] stands for this setting: Mus musculus, L1210, read-out: IC50 L1210.Hyor.
Setting [17] is: Mus musculus, L1210/0, Table 1, read-out: CC50 L1210/0.

Sequence of human UP (Q16831 whole entry): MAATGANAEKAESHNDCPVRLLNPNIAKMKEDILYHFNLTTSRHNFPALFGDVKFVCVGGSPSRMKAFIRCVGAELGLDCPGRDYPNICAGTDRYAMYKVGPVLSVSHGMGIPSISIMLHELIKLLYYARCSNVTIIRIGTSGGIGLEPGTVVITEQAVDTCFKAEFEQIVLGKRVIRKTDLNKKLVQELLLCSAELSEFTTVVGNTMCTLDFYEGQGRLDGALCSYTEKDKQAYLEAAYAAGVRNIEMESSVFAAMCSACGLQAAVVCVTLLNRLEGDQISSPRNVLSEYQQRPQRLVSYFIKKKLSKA

As to `O=c1ccn([C@@H]2O[C@H](CO)[C@@H](O)[C@H]2O)c(=O)[nH]1` [uridine, reference compound], the “Phosphorolysis by human UP” value in data set [1] is reported as “converted to uracil”.

As for `CC(C)OC(=O)[C@H](C)NP(=O)(OC[C@H]1O[C@@H](n2cc(F)c(=O)[nH]c2=O)CC1O)Oc1ccccc1` (stereo partly drawn) [CPF 384, 5-Fluoro-2′deoxyuridine-5′-O-[phenyl(isopropoxy-L-alaninyl)] phosphate], the CC50 in data set [2] (Mus musculus) was 1100 ± 100 nM; in [3] (Homo sapiens, HeLa), 25000 ± 11000 nM; in data set [5], 13000 ± 1000 nM; in data set [6] (setting [17]), 76 ± 22 nM; in data set [7], 360 ± 250 nM; in data set [8] (Homo sapiens, CCRF-CEM) it was 1000 ± 100 nM. In addition, the CC50 in data set [9] (Homo sapiens, HeLa) amounted to 710 ± 150 nM; in [10] (Homo sapiens, CEM-TK(-)), 30000 ± 10000 nM. The IC50 in data set [2] (Mus musculus, L1210) was found to be 1100 ± 100 nM; in data set [3] (Homo sapiens, HeLa), 25000 ± 11000 nM; in data set [4] (setting [16]), 700 ± 100 nM; in data set [6] (Mus musculus, L1210/0, Table 6) it was 76 ± 22 nM; in data set [6] (Mus musculus, L1210/0, Table 7) it was 50 ± 13 nM; in data set [8] (Homo sapiens, CCRF-CEM), 1000 ± 100 nM. Besides, the IC50 stood at 710 ± 150 nM in [9] (Homo sapiens, HeLa) and 30000 ± 10000 nM in [10] (Homo sapiens, CEM-TK(-)). Moreover, the “IC50(L1210.Hyor)/IC50(L1210/0)” value in data set [4] (Table 7) worked out at 14.

As for `CCOC(=O)[C@H](C)NP(=O)(OC[C@H]1O[C@@H](n2cc(F)c(=O)[nH]c2=O)CC1O)Oc1cccc2ccccc12` (stereo partly drawn) [CPF 386, 5-Fluoro-2′deoxyuridine-5′-O-[1-naphthyl (ethoxy-L-alaninyl)] phosphate], the CC50 was determined as 360 ± 10 nM in data set [2] (Mus musculus); 2800 nM in data set [3] (Homo sapiens, HeLa); 31 ± 5 nM in [6] (setting [17]); 250 ± 40 nM in [8] (Homo sapiens, CCRF-CEM); 220 ± 40 nM in data set [9] (Homo sapiens, HeLa); 1600 ± 200 nM in data set [10] (Homo sapiens, CEM-TK(-)). Also, the IC50 in data set [2] (Mus musculus, L1210) was determined as 360 ± 10 nM; in [3] (Homo sapiens, HeLa) it was 2800 nM; in data set [4] (setting [16]), 95 ± 2.8 nM; in [6] (Mus musculus, L1210/0, Table 6) it was 31 ± 5 nM; in data set [6] (Mus musculus, L1210/0, Table 7) it was 28 ± 2.1 nM; in [8] (Homo sapiens, CCRF-CEM), 250 ± 40 nM. The IC50 in [9] (Homo sapiens, HeLa) worked out at 220 ± 40 nM; in data set [10] (Homo sapiens, CEM-TK(-)) it was 1600 ± 200 nM. Moreover, the “IC50(L1210.Hyor)/IC50(L1210/0)” value in [4] (Table 7) is 3.4. The “parent compound in reaction mixture with human serum” value in data set [11] amounted to 96%.

On to `C[C@H](NP(=O)(OC[C@H]1O[C@@H](n2cc(F)c(=O)[nH]c2=O)CC1O)Oc1ccccc1)C(=O)OCc1ccccc1` (stereo partly drawn) [CPF 381, 5-Fluoro-2′-deoxyuridine-5′-O-[phenyl(benzoxy-L-alaninyl)]phosphate], for which the IC50 in data set [2] worked out at 13000 ± 8000 nM; in data set [3], 19000 ± 2000 nM; in data set [4] (read-out: IC50 L1210.Hyor, Table 7) it was 150 ± 6 nM; in data set [13], 1400 ± 650 nM; in [14] (Table 8, read-out: IC50 Cem/hEnt-1) it was 130 ± 50 nM; in [14] (in the presence of NBMPR, read-out: IC50 Cem/hEnt-1 + NBMPR), 720 nM. In addition, the IC50 in data set [14] (in the presence of dipyridamole, read-out: IC50 Cem/hEnt-1 + dipyridamole) is 660 nM; in data set [6] (Table 6) it was 28 ± 7 nM; in data set [6] (Table 7), 26 ± 8 nM; in data set [8] it was 180 ± 30 nM; in data set [9] it was 130 ± 10 nM; in data set [10] it was 22000 ± 7000 nM. Further, in [4] (CC50 L1210 × 100 ÷ CC50 L1210/Hyor), the “% Retention” value is 18%. The “IC50(L1210.Hyor)/IC50(L1210/0)” value in [4] (Table 7) is given as 5.8. The CC50 was 150 nM in data set [4] (read-out: CC50 L1210/Hyor, Table 2, mycoplasma positive cells) and 26 nM in data set [6] (Table 2, mycoplasma negative cells, read-out: CC50 L1210). Moreover, the “Phosphorolysis by thymidine phosphorylase (19F NMR)” value in [12] is “did not show any evidence of phosphorolysis”. Further, in [15], the “Stability towards hydrolysis at pH 1” value was “highly stable”.
